In the experiment the test system is all Gram-positive bacteria tested. As to the kind of experiment: inhibition of bacterial growth, span over the Gram-positive panel. As to conditions: SSA 5.0 mM, 20 hours; read-out: inhibition against all Gram-positive bacteria tested (span). The class given is cell-based, S. aureus, E. faecalis, E. faecium. The procedure:
With the self-associative properties of 1–10 established, the antimicrobial activity of these SSAs were determined against a panel of clinically relevant, high-priority pathogens including: P. aeruginosa PAO1; Klebsiella pneumonia (K. pneumoniae) M6; E. coli NCTC 12923; Acinetobacter baumannii (A. baumannii) ATCC 17978; S. aureus ATCC 9144; Enterococcus faecalis (E. faecalis) NCTC 775; and Enterococcus faecium (E. faecium) NCTC 12204. […] However, it should be noted that the SSA stock solution was prepared in a H2O 5% EtOH solution, to ensure that the SSA aggregates formed were in line with those characterised within the scope of the SSA self-association studies.
Section 3: Biological methods
These methods were taken directly from UK Health and Security Office (UKHSA) standard […]
Preparation of Luria Broth media (LB): Yeast extract (5.0 g), tryptone (10.0 g) and sodium chloride (10.0 g) were dissolved in dH₂O (1.0 L) then divided into bottles and autoclaved.
Preparation of Luria Broth (LB) agar plates: Agar (6.0 g) was added to LB (400 mL) and autoclaved. […]
Preparation of 96 well microplate for MIC50: The 1:100 cell suspension (150 µL) was dispensed into individual wells under sterile conditions. […] The plates were sealed using parafilm, then incubated at 37 °C in a microplate reader for 20 hours. […]

Consider `O=C(O)CC[C@H](NC(=O)Nc1ccc(C(F)(F)F)cc1)C(=O)O` [SSA 2], for which the inhibition at 5000 µM lay in the range of 22 to 80%.
